In US9393311B2, “Intravaginal ring comprising polyurethane composition for drug delivery” (DSM IP ASSETS B.V., priority 2010, dated 2016):
Entries after “also recorded” stand apart in the source; their conditions may differ.

Experiment: UC781 drug stability in compounded polyurethane after extrusion and accelerated storage
Type: physicochemical
Details: 4-5 week, 60° C., with and without additives
Excerpt: The drug stability in compounded lot #1100032 was also studied after extrusion and under accelerated storage conditions, with and without various antioxidants (Table 3).

## CC(C)=CCOc1cc(NC(=S)c2ccoc2C)ccc1Cl [UC781]
  UC781 stability in compounded lot #1100032: Irganox is incompatible with UC781; also recorded: best stability with BHT, EDTA or without any additives
